Results: PMC10193543 (ACS Omega, 2023)

Experiments:
[1] = target: T1, mushroom TYR (Agaricus bisporus, UniProt C7FF04); assay: biochemical; conditions: read-out: % inhibition at 25 μg/mL
Target sequence in this assay (C7FF04 2-392): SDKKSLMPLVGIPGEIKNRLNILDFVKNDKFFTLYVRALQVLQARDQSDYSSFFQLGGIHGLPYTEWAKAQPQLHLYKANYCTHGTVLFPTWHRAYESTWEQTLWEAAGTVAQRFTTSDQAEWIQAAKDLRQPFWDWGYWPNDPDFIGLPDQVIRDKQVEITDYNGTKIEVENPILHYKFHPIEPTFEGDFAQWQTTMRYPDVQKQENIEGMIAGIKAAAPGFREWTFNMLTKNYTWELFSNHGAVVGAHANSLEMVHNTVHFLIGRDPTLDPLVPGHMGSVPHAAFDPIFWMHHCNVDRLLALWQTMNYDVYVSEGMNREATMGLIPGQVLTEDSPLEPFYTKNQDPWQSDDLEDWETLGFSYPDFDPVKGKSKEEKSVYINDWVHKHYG

[2] = target: T1, mushroom TYR; assay: Kinetic study of tyrosinase inhibitory activity; type: biochemical
Target sequence in this assay (C7FF04 1-392 limits assumed): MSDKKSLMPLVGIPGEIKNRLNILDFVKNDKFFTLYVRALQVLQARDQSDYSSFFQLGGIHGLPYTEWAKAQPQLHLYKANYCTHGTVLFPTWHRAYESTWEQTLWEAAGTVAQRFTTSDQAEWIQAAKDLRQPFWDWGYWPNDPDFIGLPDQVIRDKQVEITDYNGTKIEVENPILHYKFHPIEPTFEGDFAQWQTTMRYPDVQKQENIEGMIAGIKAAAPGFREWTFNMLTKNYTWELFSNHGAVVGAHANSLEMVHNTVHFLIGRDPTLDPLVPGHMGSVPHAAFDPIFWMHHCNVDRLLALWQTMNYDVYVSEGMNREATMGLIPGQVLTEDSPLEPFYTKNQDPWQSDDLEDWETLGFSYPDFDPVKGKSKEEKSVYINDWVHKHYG

SMILES: COc1ccc(C2CC(c3ccc(C)cc3)=Nc3ccccc3S2)cc1OC (stereo not drawn) [compound 2, 2-(3,4-dimethoxyphenyl)-4-(p-tolyl)-2,3-dihydrobenzo[b][1,4]thiazepine]
- inhibition at 25 µg/mL [1]: 89 ± 3%
- Ki [2]: 1010 nM
- inhibition type ([2]; diphenolase activity, L-DOPA oxidation, Lineweaver–Burk plots): mixed-type inhibition
